Measured values as given in patent US10703756B2, “Pyrrolo[2,3-D]pyrimidinyl, pyrrolo[2,3-B]pyrazinyl, pyrrolo[2,3-B]pyridinyl acrylamides and epoxides thereof” (Pfizer Inc., priority 2015, dated 2020).
Like-named read-outs stand apart in the source and are kept apart here.

Key:
JAK3 enzyme [1] = biological target: T1, JAK3 enzyme (Homo sapiens, UniProt P52333); assay: JAK Caliper Enzyme Assay at 4 μM ATP; assay type: biochemical
T1 sequence (P52333 1-1124): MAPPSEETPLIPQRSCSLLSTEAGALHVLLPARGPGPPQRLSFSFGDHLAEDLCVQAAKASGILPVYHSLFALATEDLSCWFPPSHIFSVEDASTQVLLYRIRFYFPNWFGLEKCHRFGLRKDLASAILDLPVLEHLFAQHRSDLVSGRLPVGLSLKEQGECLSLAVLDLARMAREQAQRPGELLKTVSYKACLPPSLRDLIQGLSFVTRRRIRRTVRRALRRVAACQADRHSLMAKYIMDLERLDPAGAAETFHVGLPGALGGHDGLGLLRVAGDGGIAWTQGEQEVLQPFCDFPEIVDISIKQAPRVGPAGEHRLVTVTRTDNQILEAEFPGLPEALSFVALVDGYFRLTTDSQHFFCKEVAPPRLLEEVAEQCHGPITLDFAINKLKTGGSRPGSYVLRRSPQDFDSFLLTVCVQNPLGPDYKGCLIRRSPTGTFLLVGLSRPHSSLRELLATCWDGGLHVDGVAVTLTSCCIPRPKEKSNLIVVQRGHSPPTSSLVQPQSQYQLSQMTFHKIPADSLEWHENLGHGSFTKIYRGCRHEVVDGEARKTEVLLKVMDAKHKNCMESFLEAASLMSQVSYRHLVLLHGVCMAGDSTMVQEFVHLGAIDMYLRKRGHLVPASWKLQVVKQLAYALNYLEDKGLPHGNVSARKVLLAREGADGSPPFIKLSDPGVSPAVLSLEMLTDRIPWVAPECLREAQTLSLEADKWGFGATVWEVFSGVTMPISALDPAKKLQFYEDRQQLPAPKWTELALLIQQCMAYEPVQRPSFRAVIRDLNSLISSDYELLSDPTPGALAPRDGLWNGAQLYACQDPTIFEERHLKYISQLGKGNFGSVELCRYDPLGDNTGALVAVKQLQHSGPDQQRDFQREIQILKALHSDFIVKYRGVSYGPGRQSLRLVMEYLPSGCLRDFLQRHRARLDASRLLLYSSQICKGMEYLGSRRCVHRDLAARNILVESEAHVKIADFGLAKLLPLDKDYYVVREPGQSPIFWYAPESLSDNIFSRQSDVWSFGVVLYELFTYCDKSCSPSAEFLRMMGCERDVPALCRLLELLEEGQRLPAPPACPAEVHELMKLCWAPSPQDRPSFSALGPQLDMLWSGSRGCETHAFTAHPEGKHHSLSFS
How it was run: (§1)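 Peptide phosphorylation by the kinase, adjusted to 20%-30% conversion, is measured by microfluidic separation of substrate and product on a Caliper LC3000. Compounds run as 11-point half-log series from a 600 μM DMSO top concentration.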

JAK3 enzyme [2] = biological target: T1, JAK3 enzyme; assay: JAK Caliper Enzyme Assay at 1 mM ATP; assay type: biochemical
How it was run: as §1

[3] = Stability of JAK3 Covalent Inhibitors in Human Whole Blood; assay type: in vitro ADME; conditions: 1 μM test compound, 37° C., 180 min incubation; for half-life at 1 μM: both sexes, read-out: Human blood stability t1/2
Procedure: Stability of JAK3 Covalent Inhibitors in Rat and Human Whole Blood
Rat blood was collected from 3 male Sprague-Dawley rats (200-250 g, Charles River Laboratories) and pooled for each study. Human blood was collected from healthy subjects at the Occupational Health & Wellness Center at Pfizer, Groton, Conn. and pooled for each study. Both rat and human blood was collected freshly into K2-EDTA tubes and kept on ice. An aliquot of the blood was transferred to microtubes and pre-warmed for 10 min at 37° C. using a heat block. The test compound was then added (1 μM final concentration) and the incubation was continued for 180 min at 37° C. in duplicates. An aliquot of the incubation mixture was removed at designated time points during the course of the incubation, mixed with an aliquot of acetonitrile containing an internal standard, vortexed and centrifuged. The resulting supernatants were removed and subjected to LC-MS/MS analyses to determine parent compound concentrations. Peak area ratios of the parent compound vs the internal standard were used to determine the % of parent compound remaining vs incubation time.

[4] = test system: IL-15 induced P-STAT5 in human PBMC; assay: PBMC IL-15 Induced P-STAT5; assay type: cell-based
How it was run: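 Flow cytometry gated on total lymphocytes measured STAT5 staining (Alexa Fluor 647 antibody, overnight, 4 °C) in fixed, methanol-permeabilised human PBMC. Cells had received compound for 15 min at 37 °C (0.2% DMSO final), followed by 41 ng/mL final human IL-15 for 15 min.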

[5] = Homo sapiens, PBMC, read-out: PBMC IL15_pSTAT5_IC50 (nM)
[6] = human PBMC, IL-15 final 41 ng/mL, read-out: PBMC IL15_pSTAT5_IC50

| Compound | IC50 (JAK3 enzyme [1]) [nM] | IC50 (JAK3 enzyme [2]) [nM] | half-life at 1 μM [3] [h] | IC50 [4, 5] [nM] | Human blood stability t1/2 [3] [h] | IC50 [4, 6] [nM] |
| --- | --- | --- | --- | --- | --- | --- |
| C=CC(=O)N1CC[C@@H](Nc2cnc3[nH]cc(C(=O)N[C@@H](C)COC)c3n2)C[C@H]1C (stereo in doubt) [Example 56, 2-{[(2R,4R)-1-acryloyl-2-methylpiperidin-4-yl]amino}-N-[(2S)-1-methoxypropan-2-yl]-5H-pyrrolo[2,3-b]pyrazine-7-carboxamide] | 0.927 | 70 | > 6 | 1600 | – | – |
| C=CC(=O)N1CC[C@H](Nc2cnc3[nH]cc(C(=O)N[C@H](C)COC)c3n2)C[C@@H]1C (single isomer, unassigned) [Example 57] | 4.45 | 241 | > 6 | 3220 | – | – |
| C=CC(=O)N1CC(Nc2ncnc3[nH]ccc23)CCC1[C@@H](C)O (mixture of isomers) [Example 109] | 0.713 | 155 | – | – | 2.20175 | 320 |
| C=CC(=O)N1C[C@H](Nc2cnc3[nH]cc(C(=O)N[C@H](C)COC)c3n2)CC[C@@H]1C (single isomer, unassigned) [Example 69] | 0.782 | 137 | > 6 | – | – | 2610 |
| C=CC(=O)N1C[C@@H](CO)C[C@@H](Nc2ncnc3[nH]ccc23)C1 (single isomer, unassigned) [Example 98] | 1.26 | 152 | 1.76 | – | – | 932 |
| C=CC(=O)N1C[C@@H](Nc2cnc3[nH]cc(C(=O)N[C@@H](C)COC)c3n2)CC[C@H]1C (single isomer, unassigned) [Example 67] | 0.511 | 25 | > 6 | – | – | 439 |
| C=CC(=O)N1CC[C@H](Nc2cnc3[nH]cc(C(=O)NCC)c3n2)[C@@H](OC)C1 (single isomer, unassigned) [Example 27] | 0.468 | 19 | > 6 | – | – | 382 |
| C=CC(=O)N1CC[C@H](Nc2cnc3[nH]cc(C(=O)NCCC(F)(F)F)c3n2)C1 [Example 235, 2-{[(3S)-1-acryloylpyrrolidin-3-yl]amino}-N-(3,3,3-trifluoropropyl)-5H-pyrrolo[2,3-b]pyrazine-7-carboxamide] | 0.304 | 37 | 5.78 | – | – | 208 |
| C=CC(=O)N1CCC(Oc2cnc3[nH]cc(-c4ncnn4C(C)C)c3n2)CC1 [Example 123] | 7.65 | 1100 | 2.45 | – | – | 3040 |
| C=CC(=O)N1CC[C@@H](Nc2cnc3[nH]cc(C(=O)NCC)c3n2)[C@H](C)C1 (racemic) [Example 43, Trans-racemic-2-{[(3R,4R)-1-acryloyl-3-methylpiperidin-4-yl]amino}-N-ethyl-5H-pyrrolo[2,3-b]pyrazine-7-carboxamide] | 0.258 | 50 | 3.73 | – | – | 411 |
| C=CC(=O)N1CC[C@@H](CNc2cnc3[nH]cc(C(=O)N[C@@H](C)COC)c3n2)C1 (single isomer, unassigned) [Example 17] | 0.319 | 37 | 3.16 | – | – | 2560 |
| C=CC(=O)N1CC[C@H](Nc2cnc3[nH]cc(C(=O)NCC)c3n2)[C@@H](O)C1 (single isomer, unassigned) [Example 32] | 0.848 | 138 | > 6 | – | – | 9100 |
| C=CC(=O)N1CC[C@H](Nc2cnc3[nH]cc(C(=O)N[C@@H](C)COC)c3n2)C[C@@H]1C (relative stereo) [Example 55, 2-{[(2S,4S)-1-acryloyl-2-methylpiperidin-4-yl]amino}-N-[(2S)-1-methoxypropan-2-yl]-5H-pyrrolo[2,3-b]pyrazine-7-carboxamide] | 2.21 | 192 | > 6 | 2260 | – | – |
| C=CC(=O)N1CCC(Nc2cnc3[nH]cc(C(=O)NCC(C)C)c3n2)C1 (stereo in doubt) [Example 256, 2-{[(3S)-1-acryloylpyrrolidin-3-yl]amino}-N-(2-methylpropyl)-5H-pyrrolo[2,3-b]pyrazine-7-carboxamide] | 0.124 | 23 | 4.58 | – | – | 531 |
| C=CC(=O)N1CC[C@H](Nc2cnc3[nH]cc(C(=O)NCC)c3n2)[C@@H](O)C1 (racemic) [Example 31, Trans-racemic-2-{[(3S,4S)-1-acryloyl-3-hydroxypiperidin-4-yl]amino}-N-ethyl-5H-pyrrolo[2,3-b]pyrazine-7-carboxamide] | 0.211 | 47 | 4.9 | – | – | 3870 |
| C=CC(=O)N1CCN(c2cnc3[nH]cc(C(=O)NC(C)COC)c3n2)CC1(C)C (racemic) [Example 148, Racemic-2-(4-acryloyl-3,3-dimethylpiperazin-1-yl)-N-(1-methoxypropan-2-yl)-5H-pyrrolo[2,3-b]pyrazine-7-carboxamide] | 0.773 | 111 | > 6 | – | – | 312 |
| C=CC(=O)N1CCC(Nc2cnc3[nH]cc(C(=O)NCCCC(F)(F)F)c3n2)C1 (stereo in doubt) [Example 237, 2-{[(3S)-1-acryloylpyrrolidin-3-yl]amino}-N-(4,4,4-trifluorobutyl)-5H-pyrrolo[2,3-b]pyrazine-7-carboxamide] | 0.25 | 56 | 4.32 | – | – | 780 |
| C=CC(=O)N1CC[C@@H](Oc2cnc3[nH]cc(C(=O)NCC)c3n2)C1 [Example 87, (R)-2-[(1-acryloylpyrrolidin-3-yl)oxy]-N-ethyl-5H-pyrrolo[2,3-b]pyrazine-7-carboxamide] | 14 | 1320 | > 6 | – | – | 6490 |
| C=CC(=O)N1CCCC(Nc2cnc3[nH]cc(C(=O)NCC)c3n2)C1 (racemic) [Example 34, Racemic-2-[(1-acryloylpiperidin-3-yl)amino]-N-ethyl-5H-pyrrolo[2,3-b]pyrazine-7-carboxamide] | 0.501 | 105 | > 6 | – | – | 580 |
| C=CC(=O)N1C[C@@H](Nc2cnc3[nH]cc(C(=O)NCC)c3n2)CC[C@H]1C (single isomer, unassigned) [Example 75] | 1.6 | 316 | > 6 | – | – | 2280 |
| C=CC(=O)N1CC[C@H](Oc2cnc3[nH]cc(C(=O)N[C@@H](C)COC)c3n2)C[C@H]1C (single isomer, unassigned) [Example 72] | 1.13 | 80 | 2.77 | – | – | 415 |
| C=CC(=O)N1CCC[C@H](Oc2cnc3[nH]cc(C(=O)N[C@@H](C)COC)c3n2)C1 [Example 50, 2-{[(3S)-1-acryloylpiperidin-3-yl]oxy}-N-[(2S)-1-methoxypropan-2-yl]-5H-pyrrolo[2,3-b]pyrazine-7-carboxamide] | 1.09 | 91 | > 6 | – | – | 431 |
